The test system of data set [1] is D. immitis transglutaminase. Description: Effect of ions, inhibitors and other reagents on activity of transglutaminase purified from adult D. immitis worms (microtiter plate assay). Type of data set: biochemical.
For data set [2], the system named is PHIS-PDiTG468. Type of data set: biochemical, D. immitis.
The subject of a further data set is D. immitis L3 larvae. Description: D. immitis L3 larval molting in in vitro larval culture. Type of data set: cell-based.
The next data set has as its target T1, PDI from bovine liver (Bos taurus, UniProt P05307).
T1 sequence (P05307 21-510): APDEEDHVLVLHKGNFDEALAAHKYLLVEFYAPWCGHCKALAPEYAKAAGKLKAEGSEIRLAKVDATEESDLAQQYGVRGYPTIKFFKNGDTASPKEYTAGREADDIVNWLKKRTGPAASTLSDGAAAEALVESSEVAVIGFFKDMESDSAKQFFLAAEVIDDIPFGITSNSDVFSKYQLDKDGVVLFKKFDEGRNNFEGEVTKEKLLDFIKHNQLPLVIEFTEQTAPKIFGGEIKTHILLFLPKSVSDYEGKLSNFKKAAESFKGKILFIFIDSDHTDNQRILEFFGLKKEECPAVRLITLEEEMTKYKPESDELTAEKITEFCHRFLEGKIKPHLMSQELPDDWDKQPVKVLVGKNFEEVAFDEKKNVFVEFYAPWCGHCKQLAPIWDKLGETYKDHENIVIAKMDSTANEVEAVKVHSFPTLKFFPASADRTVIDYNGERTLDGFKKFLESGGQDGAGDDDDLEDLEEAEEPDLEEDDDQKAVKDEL
Description: Effect of transglutaminase inhibitors on PDI activity of purified bovine liver PDI (scrambled RNase reactivation). Type of data set: biochemical. The settings on record: inhibitor 1 mM.

Data set [3] concerns PHIS-PDiTG468. Type of data set: biochemical, D. immitis. The source holds these as a separate data set.
The target in data set [4] is bovine protein disulfide isomerase (PDI) (Bos taurus, UniProt P05307).
A further data set has as its system dimethylcasein. Type of data set: biochemical.
The mark [5] stands for this setting: 50 μM, inhibitor present during first 24 hr of L3 culture.
Setting [6] is: 100 μM, inhibitor present during first 24 hr of L3 culture.
Where [7] appears, read: reagent 1 mM, with 10 mM CaCl2 and 10 mM dithiothreitol.
The mark [8] stands for this setting: reagent 10 mM, with 10 mM CaCl2 and 10 mM dithiothreitol.

“And” between values parts separate entries of the source, which are not always exact repeats. Identical values can stand only once. “Also recorded” adds a separate entry of the source. Like-named read-outs stand apart in the source and are kept apart here.

For the molecule Tris-HCl, in data set [1], the “Effect on activity of transglutaminase purified from adult D. immitis worms (in words)” value (from here on “Effect on activity”) is recorded as “reversibly inhibited the enzyme”; the “Transglutaminase activity (% of control)” value is 66 % of control and 40 % of control.

Regarding Nα-CBZ-Gln-Gly, in data set [1], the “Effect on activity” value was “affects the enzyme activity only slightly” and the “Transglutaminase activity (% of control)” value was 92 % of control.

With `NCCSSCCN` [Cystamine], in the data set with PHIS-PDiTG468 [2], the “PDI Activity (Mean ± SD) of PHIS-PDiTG468” value is reported as 33.3 ± 1.8 ΔA min^−1. The Percent molted is on record as 61% with D. immitis L3 larvae (25 μM, L3 cultured 6 days); 62% with D. immitis L3 larvae (50 μM, L3 cultured 6 days); 68% in the data set with D. immitis L3 larvae (setting [5]); 17% in the data set with D. immitis L3 larvae (75 μM, L3 cultured 6 days); 1% with D. immitis L3 larvae (85 μM, L3 cultured 6 days); 0% with D. immitis L3 larvae (100 μM, L3 cultured 6 days). In the data set on D. immitis L3 larvae (setting [6]), this molecule came in with a Percent molted of 13%. Also, the “Inhibition of molting of L3 to L4 (in words)” value (“Inhibition of molting of L3” below) with D. immitis L3 larvae (100 μM final concentration) is given as “completely inhibited the molting process”. Besides, the “Inhibition of larval molting (in words)” value with D. immitis L3 larvae (added on day 2 during the culture) is “very effective inhibitor of larval molting”. Besides, the “PDI Activity (Mean ± SD) of PDI” value on PDI from bovine liver was 26.4 ± 2.9 ΔA min^−1. Moreover, in data set [1], the “Effect on activity” value is given as “inhibited competitively”. Also, the “Transglutaminase activity (% of control)” value in data set [1] (setting [7]) is 52 % of control. Further, in the data set on PHIS-PDiTG468 [3], the “Activity (mU ± SEM)” value is 46.4 ± 4.6 mU and 28.3 ± 2.2 mU. Further, the “Effect on transglutaminase activity of PHIS-PDiTG468 (in words)” value (“Effect … of PHIS-PDiTG468 (in words)” for short) in the data set on PHIS-PDiTG468 [3] was “inhibited the transglutaminase activity”.

`O[C@H](CS)[C@H](O)CS` (racemic) [Dithiothreitol]: the “Effect on activity” value in data set [1] is reported as “increased the enzyme activity substantially”. In the data set with PHIS-PDiTG468 [3], the “Effect … of PHIS-PDiTG468 (in words)” value is “more active in the absence of DTT”.

As to `OCCS` [mercaptoethanol], the “Effect on activity” value in data set [1] is on record as “increased the enzyme activity substantially”.

With `O=C(O)CN(CCOCCOCCN(CC(=O)O)CC(=O)O)CC(=O)O` [EGTA], the “Effect on activity” value in data set [1] is reported as “completely blocked the activity”. Also, the “Transglutaminase activity (% of control)” value in data set [1] (setting [8]) is 0 % of control. The “Effect … of PHIS-PDiTG468 (in words)” value in the data set with PHIS-PDiTG468 [3] was “inhibited”.

Take `N.N.O=S(=O)(O)O` [(NH4)2SO4]: the “Transglutaminase activity (% of control)” value in data set [1] (setting [8]) is 0 % of control.

For `NC(=O)CI` [Iodoacetamide], the “Inhibition of molting of L3” value with D. immitis L3 larvae is listed as “able to inhibit”. In addition, the “Effect on activity” value in data set [1] is “decreased the activity drastically”. For the same molecule, the “Effect … of PHIS-PDiTG468 (in words)” value in the data set with PHIS-PDiTG468 [3] is recorded as “inhibited the transglutaminase activity”.

As to `O=C(O)CN(CCN(CC(=O)O)CC(=O)O)CC(=O)O` [EDTA], the “Effect on transglutaminase activity of bovine PDI (in words)” value in data set [4] was “inhibited”. Besides, the “Effect … of PHIS-PDiTG468 (in words)” value with PHIS-PDiTG468 [3] is given as “inhibited”.

On to `[Cl-].[K+]` [KCl], for which the “Transglutaminase activity (% of control)” value in data set [1] (reagent 500 mM, with 10 mM CaCl2 and 10 mM dithiothreitol) is on record as 54 % of control.

Consider `NCCCCN` [Putrescine], for which the “Effect on activity” value in data set [1] is given as “inhibited competitively”. The “Transglutaminase activity (% of control)” value in data set [1] (setting [7]) is given as 14 % of control. In addition, in the data set on PHIS-PDiTG468 [3], the “Activity (mU ± SEM)” value is 36.5 ± 3.9 mU and 35.3 ± 4.3 mU; the “Effect … of PHIS-PDiTG468 (in words)” value is “inhibited the transglutaminase activity”.

As for `CN(C)c1cccc2c(S(=O)(=O)NCCCCCN)cccc12` [Monodansyl cadaverine], the “PDI Activity (Mean ± SD) of PHIS-PDiTG468” value in the data set on PHIS-PDiTG468 [2] was 41.2 ± 2.9 ΔA min^−1. For the same molecule, the Percent molted is listed as 75% in the data set on D. immitis L3 larvae (25 μM, L3 cultured 6 days); 63% with D. immitis L3 larvae (50 μM, L3 cultured 6 days); 64% with D. immitis L3 larvae (setting [5]); 28% with D. immitis L3 larvae (75 μM, L3 cultured 6 days); 2.5% in the data set with D. immitis L3 larvae (85 μM, L3 cultured 6 days); 0% with D. immitis L3 larvae (100 μM, L3 cultured 6 days). The same molecule showed a Percent molted with D. immitis L3 larvae (setting [6]) of 41%. The “Inhibition of molting of L3” value in the data set on D. immitis L3 larvae (100 μM final concentration, listed as MDC) was “completely inhibited the molting process; also recorded: completely inhibits”. Further, the “Molting of larvae cultured in the presence of MDC (in words)” value in the data set with D. immitis L3 larvae (day 6, electron microscopy study) is “failed to molt even on day 6”. On PDI from bovine liver, the “PDI Activity (Mean ± SD) of PDI” value is on record as 24.0 ± 2.0 ΔA min^−1. Further, in data set [1], the “Effect on activity” value is “inhibited competitively”. Further, the “Transglutaminase activity (% of control)” value in data set [1] (setting [7]) is 9 % of control. Besides, the “Activity (mU ± SEM)” value with PHIS-PDiTG468 [3] is 48.3 ± 4.0 mU and 44.6 ± 5.1 mU. Also, the “Effect … of PHIS-PDiTG468 (in words)” value in the data set on PHIS-PDiTG468 [3] was “inhibited the transglutaminase activity”.

`Nc1nc2c(ncn2[C@@H]2O[C@H](COP(=O)(O)OP(=O)(O)OP(=O)(O)O)[C@@H](O)[C@H]2O)c(=O)[nH]1` [GTP]: the “Effect on activity” value in data set [1] is reported as “not affected adversely”. Besides, the “Transglutaminase activity (% of control)” value in data set [1] (reagent 0.1 mM, with 10 mM CaCl2 and 10 mM dithiothreitol) is 100 % of control; in data set [1] (setting [7]), 95 % of control.

B1: PDI: bovine protein disulfide isomerase, purified from bovine liver, available from Sigma (protein, UniProt P05307 21-510, looked up)
Protein disulfide-isomerase: APDEEDHVLVLHKGNFDEALAAHKYLLVEFYAPWCGHCKALAPEYAKAAGKLKAEGSEIRLAKVDATEESDLAQQYGVRGYPTIKFFKNGDTASPKEYTAGREADDIVNWLKKRTGPAASTLSDGAAAEALVESSEVAVIGFFKDMESDSAKQFFLAAEVIDDIPFGITSNSDVFSKYQLDKDGVVLFKKFDEGRNNFEGEVTKEKLLDFIKHNQLPLVIEFTEQTAPKIFGGEIKTHILLFLPKSVSDYEGKLSNFKKAAESFKGKILFIFIDSDHTDNQRILEFFGLKKEECPAVRLITLEEEMTKYKPESDELTAEKITEFCHRFLEGKIKPHLMSQELPDDWDKQPVKVLVGKNFEEVAFDEKKNVFVEFYAPWCGHCKQLAPIWDKLGETYKDHENIVIAKMDSTANEVEAVKVHSFPTLKFFPASADRTVIDYNGERTLDGFKKFLESGGQDGAGDDDDLEDLEEAEEPDLEEDDDQKAVKDEL
With B1, the “Temperature of optimum transglutaminase activity” value in the data set on dimethylcasein worked out at 55 °C. Also, the “Activity (mU ± SEM)” value with dimethylcasein (37 °C) is reported as 30.3 ± 1.0 mU; in the data set on dimethylcasein (45 °C), 47.2 ± 2.5 mU; in the data set with dimethylcasein (55 °C), 92.1 ± 4.3 mU; in the data set with dimethylcasein (65 °C), 67.0 ± 2.9 mU.

The record behind these values is US6383774B1, “Parasitic nematode transglutaminase, nucleic acid molecules and uses thereof” (Heska Corporation, priority 1996, dated 2002).
